Test results taken from ChEMBL document CHEMBL4190187, “Discovery of pyrazolopyrimidine derivatives as novel inhibitors of ataxia telangiectasia and rad3 related protein (ATR)” (Bioorg Med Chem Lett, 2017).

How the values were obtained:
[1] = molecular target: Platelet-derived growth factor receptor alpha (Homo sapiens) (UniProt P16234); test: Inhibition of recombinant human PDGFRalpha (550 to end residues) at 1 uM using poly(Glu,Tyr) 4:1 as substrate after 40 mins in presence of [gamma-33P]ATP by scintillation counting method
Sequence of Platelet-derived growth factor receptor alpha (Homo sapiens) (P16234 whole entry): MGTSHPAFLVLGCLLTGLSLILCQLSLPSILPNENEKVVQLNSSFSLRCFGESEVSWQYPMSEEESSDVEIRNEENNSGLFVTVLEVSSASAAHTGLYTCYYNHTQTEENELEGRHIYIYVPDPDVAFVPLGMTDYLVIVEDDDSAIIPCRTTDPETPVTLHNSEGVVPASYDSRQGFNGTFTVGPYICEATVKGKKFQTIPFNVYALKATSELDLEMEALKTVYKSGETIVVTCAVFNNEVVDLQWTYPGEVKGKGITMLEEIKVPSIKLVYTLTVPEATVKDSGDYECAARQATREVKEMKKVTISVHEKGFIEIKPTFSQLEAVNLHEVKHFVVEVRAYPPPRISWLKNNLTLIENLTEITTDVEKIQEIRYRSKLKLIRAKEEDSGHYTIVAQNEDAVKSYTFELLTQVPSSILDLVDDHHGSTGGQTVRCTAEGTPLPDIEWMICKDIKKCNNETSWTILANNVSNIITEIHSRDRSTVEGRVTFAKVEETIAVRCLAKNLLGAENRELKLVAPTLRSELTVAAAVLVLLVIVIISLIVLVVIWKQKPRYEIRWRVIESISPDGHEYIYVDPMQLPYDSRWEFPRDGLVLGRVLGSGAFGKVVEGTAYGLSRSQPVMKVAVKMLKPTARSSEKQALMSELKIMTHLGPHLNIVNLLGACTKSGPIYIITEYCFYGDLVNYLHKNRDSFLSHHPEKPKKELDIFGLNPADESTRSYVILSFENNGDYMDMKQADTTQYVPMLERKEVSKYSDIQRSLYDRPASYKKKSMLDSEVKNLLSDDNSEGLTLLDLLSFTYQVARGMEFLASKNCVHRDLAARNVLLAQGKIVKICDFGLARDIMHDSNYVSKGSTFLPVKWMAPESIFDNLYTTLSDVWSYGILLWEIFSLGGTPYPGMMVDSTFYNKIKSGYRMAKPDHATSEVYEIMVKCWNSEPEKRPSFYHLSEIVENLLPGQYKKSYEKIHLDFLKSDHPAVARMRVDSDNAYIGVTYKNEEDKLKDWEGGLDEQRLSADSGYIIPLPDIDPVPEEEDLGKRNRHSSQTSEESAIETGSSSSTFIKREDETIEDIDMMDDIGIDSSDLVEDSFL

[2] = molecular target: Serine/threonine-protein kinase 32A (Homo sapiens) (UniProt Q8WU08); test: Inhibition of recombinant full-length human STK32A at 1 uM using casein as substrate after 120 mins in presence of [gamma-33P]ATP by scintillation counting method
Sequence of Serine/threonine-protein kinase 32A (Homo sapiens) (Q8WU08 whole entry): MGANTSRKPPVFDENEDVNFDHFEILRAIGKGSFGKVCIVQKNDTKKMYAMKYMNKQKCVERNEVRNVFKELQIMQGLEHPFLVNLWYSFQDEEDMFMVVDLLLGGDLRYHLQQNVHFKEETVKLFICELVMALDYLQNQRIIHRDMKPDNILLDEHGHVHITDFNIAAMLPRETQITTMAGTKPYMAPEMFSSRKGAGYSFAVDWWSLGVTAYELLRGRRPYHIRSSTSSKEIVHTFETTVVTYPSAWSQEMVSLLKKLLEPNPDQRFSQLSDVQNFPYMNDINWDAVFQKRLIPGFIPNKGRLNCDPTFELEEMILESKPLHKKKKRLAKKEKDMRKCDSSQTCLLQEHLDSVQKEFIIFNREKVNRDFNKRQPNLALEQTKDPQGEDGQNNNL

[3] = tested on: Tyrosine-protein kinase BTK (Homo sapiens), Q06187 [R28H]; test: Inhibition of recombinant full-length human BTK R28H mutant at 1 uM using LSNLYHQGKFLQTFCGSPLYRRR as substrate after 40 mins in presence of [gamma-33P]ATP by scintillation counting method
[4] = molecular target: Serine/threonine-protein kinase 10 (Homo sapiens) (UniProt O94804); test: Inhibition of recombinant human LOK (1 to 348 residues) at 1 uM using RLGRDKYKTLRQIRQ as substrate after 40 mins in presence of [gamma-33P]ATP by scintillation counting method
Sequence of Serine/threonine-protein kinase 10 (Homo sapiens) (O94804 whole entry, looked up, the tested form may be a part): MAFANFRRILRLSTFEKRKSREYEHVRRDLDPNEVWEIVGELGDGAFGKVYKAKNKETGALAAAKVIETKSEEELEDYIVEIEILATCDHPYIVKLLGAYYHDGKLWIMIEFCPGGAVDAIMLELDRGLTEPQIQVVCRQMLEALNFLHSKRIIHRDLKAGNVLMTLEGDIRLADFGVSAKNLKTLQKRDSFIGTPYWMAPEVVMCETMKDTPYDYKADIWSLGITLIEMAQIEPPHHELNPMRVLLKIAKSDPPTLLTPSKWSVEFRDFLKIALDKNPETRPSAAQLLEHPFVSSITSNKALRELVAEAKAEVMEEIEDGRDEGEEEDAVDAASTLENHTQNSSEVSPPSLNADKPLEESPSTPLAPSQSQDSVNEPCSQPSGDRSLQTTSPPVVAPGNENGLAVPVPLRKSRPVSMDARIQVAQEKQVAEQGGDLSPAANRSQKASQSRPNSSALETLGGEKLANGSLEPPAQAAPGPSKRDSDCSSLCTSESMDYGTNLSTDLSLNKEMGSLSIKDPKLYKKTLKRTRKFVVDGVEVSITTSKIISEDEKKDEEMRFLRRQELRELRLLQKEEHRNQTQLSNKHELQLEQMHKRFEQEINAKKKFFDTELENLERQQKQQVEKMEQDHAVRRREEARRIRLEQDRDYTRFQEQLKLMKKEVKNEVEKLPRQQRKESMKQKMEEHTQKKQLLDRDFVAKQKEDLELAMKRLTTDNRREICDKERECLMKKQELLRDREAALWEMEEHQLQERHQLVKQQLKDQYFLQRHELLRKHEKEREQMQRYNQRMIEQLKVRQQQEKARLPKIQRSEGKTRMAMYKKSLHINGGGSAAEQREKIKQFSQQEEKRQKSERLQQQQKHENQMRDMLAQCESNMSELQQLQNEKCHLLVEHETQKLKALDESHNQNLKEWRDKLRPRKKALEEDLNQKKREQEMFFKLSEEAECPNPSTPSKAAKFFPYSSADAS

[5] = molecular target: Mitogen-activated protein kinase 14 (Homo sapiens) (UniProt Q16539); test: Inhibition of recombinant full-length human SAPK2a at 1 uM using myelin basic protein as substrate after 40 mins in presence of [gamma-33P]ATP by scintillation counting method
Sequence of Mitogen-activated protein kinase 14 (Homo sapiens) (Q16539 whole entry): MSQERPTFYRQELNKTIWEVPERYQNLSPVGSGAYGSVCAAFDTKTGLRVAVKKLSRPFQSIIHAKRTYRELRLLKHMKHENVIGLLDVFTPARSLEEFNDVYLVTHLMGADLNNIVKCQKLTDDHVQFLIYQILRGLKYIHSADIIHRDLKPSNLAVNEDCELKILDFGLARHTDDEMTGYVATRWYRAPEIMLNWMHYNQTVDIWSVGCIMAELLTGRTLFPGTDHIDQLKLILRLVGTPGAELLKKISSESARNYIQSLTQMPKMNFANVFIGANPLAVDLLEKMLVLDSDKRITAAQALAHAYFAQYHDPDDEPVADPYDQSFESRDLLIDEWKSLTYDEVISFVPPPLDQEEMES

[6] = molecular target: Dual specificity protein kinase CLK3 (Homo sapiens) (UniProt P49761); test: Inhibition of recombinant full-length human CLK3 at 1 uM using ERMRPRKRQGSVRRRV as substrate after 40 mins in presence of [gamma-33P]ATP by scintillation counting method
Sequence of Dual specificity protein kinase CLK3 (Homo sapiens) (P49761 whole entry, looked up): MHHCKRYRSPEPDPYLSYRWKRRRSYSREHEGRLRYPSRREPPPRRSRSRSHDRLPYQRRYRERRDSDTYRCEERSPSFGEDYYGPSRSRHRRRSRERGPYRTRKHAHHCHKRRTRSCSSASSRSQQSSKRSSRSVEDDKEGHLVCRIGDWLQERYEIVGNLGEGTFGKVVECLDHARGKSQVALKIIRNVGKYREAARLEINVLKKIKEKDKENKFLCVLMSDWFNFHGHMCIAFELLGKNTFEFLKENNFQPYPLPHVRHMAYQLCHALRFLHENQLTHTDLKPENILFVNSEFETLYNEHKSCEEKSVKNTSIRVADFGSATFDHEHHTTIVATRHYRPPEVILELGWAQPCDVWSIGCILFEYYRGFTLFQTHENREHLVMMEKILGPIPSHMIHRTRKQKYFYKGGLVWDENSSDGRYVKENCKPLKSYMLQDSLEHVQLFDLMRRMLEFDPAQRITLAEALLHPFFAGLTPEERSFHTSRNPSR

[7] = molecular target: Serine/threonine-protein kinase MARK2 (Homo sapiens) (UniProt Q7KZI7); test: Inhibition of recombinant full-length human PAR-1Balpha at 1 uM using KKKVSRSGLYRSPSMPENLNRPR as substrate after 40 mins in presence of [gamma-33P]ATP by scintillation counting method
[8] = molecular target: Epidermal growth factor receptor (Homo sapiens) (UniProt P00533); test: Inhibition of recombinant human EGFR (696 to end residues) at 1 uM using poly(Glu,Tyr) 4:1 as substrate after 40 mins in presence of [gamma-33P]ATP by scintillation counting method
Sequence of Epidermal growth factor receptor (Homo sapiens) (P00533 whole entry): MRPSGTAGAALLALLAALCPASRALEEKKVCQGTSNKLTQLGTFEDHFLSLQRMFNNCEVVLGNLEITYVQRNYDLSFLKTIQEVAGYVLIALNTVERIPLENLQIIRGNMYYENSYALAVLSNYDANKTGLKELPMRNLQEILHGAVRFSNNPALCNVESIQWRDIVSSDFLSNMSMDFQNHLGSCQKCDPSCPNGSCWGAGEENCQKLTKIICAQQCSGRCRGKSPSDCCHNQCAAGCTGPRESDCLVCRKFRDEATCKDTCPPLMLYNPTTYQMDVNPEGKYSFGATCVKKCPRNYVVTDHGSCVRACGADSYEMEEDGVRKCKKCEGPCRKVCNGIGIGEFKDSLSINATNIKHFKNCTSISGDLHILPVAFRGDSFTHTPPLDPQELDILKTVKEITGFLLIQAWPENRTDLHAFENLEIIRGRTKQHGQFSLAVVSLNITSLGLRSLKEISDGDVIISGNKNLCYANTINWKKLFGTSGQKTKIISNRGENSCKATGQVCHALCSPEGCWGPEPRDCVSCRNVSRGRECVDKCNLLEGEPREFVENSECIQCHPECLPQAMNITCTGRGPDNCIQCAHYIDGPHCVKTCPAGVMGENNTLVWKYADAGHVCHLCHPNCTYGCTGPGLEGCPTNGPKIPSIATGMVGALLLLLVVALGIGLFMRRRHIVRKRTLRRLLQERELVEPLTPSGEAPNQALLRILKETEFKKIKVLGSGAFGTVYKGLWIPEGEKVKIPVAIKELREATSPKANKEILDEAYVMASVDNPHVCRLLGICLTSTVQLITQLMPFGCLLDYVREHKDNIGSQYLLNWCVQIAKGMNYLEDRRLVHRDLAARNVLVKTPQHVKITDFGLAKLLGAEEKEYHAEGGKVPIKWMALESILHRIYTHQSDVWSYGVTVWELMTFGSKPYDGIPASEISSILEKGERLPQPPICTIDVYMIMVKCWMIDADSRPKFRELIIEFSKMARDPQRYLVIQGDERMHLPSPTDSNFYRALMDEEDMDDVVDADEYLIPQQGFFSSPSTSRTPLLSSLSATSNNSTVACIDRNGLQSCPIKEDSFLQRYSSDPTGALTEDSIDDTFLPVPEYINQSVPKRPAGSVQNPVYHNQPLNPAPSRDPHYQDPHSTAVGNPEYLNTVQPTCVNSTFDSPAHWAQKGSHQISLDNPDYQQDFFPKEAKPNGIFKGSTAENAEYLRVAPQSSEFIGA

Work on CS(=O)(=O)c1ccc(-n2nc(-c3cnc4[nH]ccc4c3)c3c(N)ncnc32)cc1 yielded an inhibition [1] of -6%, an inhibition [2] of 6% and an inhibition [3] of 5%. It also gave an inhibition [4] of -5%, an inhibition [5] of -5% and an inhibition [6] of -1%. For the same compound, the inhibition [7] was 6% and the inhibition [8] was 3%.
